From patent publication EP1144423B1, “BIS-TERPYRIDINE-PLATINUM(II) COMPLEXES” (ISIS INNOVATION LIMITED, priority 1999, dated 2000)
Read-outs that look alike come from different tables or passages of the source.

Assays:
[1] = system: poly[d(A-T)2]; details: second binding mode, circular dichroism; cited from earlier work
[2] = system: CH1 cell line; assay: in vitro cytotoxicity, sulforhodamine B growth inhibition assay; type: cell-based, human; details: 96 h exposure
Procedure: (§1) The IC50 values of the bis-2,2':6',2"-terpyridine Pt(II) complexes (1, Z=trans-CH=CH-, Y=H), (1, Z=trans-CH=CH-, Y=Cl) and (1, Z=trans-CH=CH-, Y=4-Br.C6H4), were reported in PCT/GB97/00218 (WO97/27202) and referred to as A14, I14 and Q14 respectively. They were evaluated for in vitro cytotoxicity against five human ovarian carcinoma cell lines which included two selected for resistance to cisplatin (Ch1cis^R and A2780cis^R) and one for resistance to doxorubicin (Ch1dox^R). The compounds were exposed to cells for 96 h and growth inhibition assessed using the sulforhodamine B protein staining assay.

[3] = system: cisplatin resistant CH1 cell line (CH1cis^R); assay: as above; type: cell-based, human; details: 96 h exposure
Procedure: as §1

[4] = system: doxirubicin resistant CH1 cell line; type: cell-based, human; details: doxirubicin resistant CH1 cell line versus CH1
Procedure: as §1

[5] = maximum tolerated dose, single intraperitoneal injection; type: in vivo; details: for loss of body weight: 25, 50 and 100 mg/kg i.p., body weight 2 weeks post-dosing; for deaths: single intraperitoneal injection at 25, 50 and 100 mg/kg; for signs of induced toxicity: single intraperitoneal injection
Procedure: The maximum tolerated dose was determined for A15(4NO3) and I15(4NO3).
Drugs were administered as a single intraperitoneal injection at 25, 50 and 100 mg/kg. Animals were observed daily for signs of induced toxicity and body weight determined 2 weeks post-dosing.

[6] = system: calf-thymus (ct)-DNA; details: literature values; cited from earlier work
[7] = system: cell line SKOV3; assay: in vitro cytotoxicity, sulforhodamine B growth inhibition assay; type: cell-based, human
Procedure: as §1

[8] = system: cell line SKOV3; details: reported in WO 97/27202; cited from earlier work
[9] = system: cisplatin resistant CH1 cell line (CH1cis^R); details: 96 h exposure, value reported in WO97/27202; cited from earlier work
[10] = system: DNA; details: intercalation into DNA, literature value [4]; cited from earlier work
[11] = system: A2780 cisplatin resistant cell line (A2780cis^R); assay: in vitro cytotoxicity, sulforhodamine B growth inhibition assay; type: cell-based, human
Procedure: as §1

[12] = system: cell line A2780; assay: as above; type: cell-based, human; details: 96 h exposure
Procedure: as §1

Cc1cc[n+]([Pt-2]23[n+]4ccccc4-c4cccc([n+]42)-c2cccc[n+]23)cc1.F[B-](F)(F)F.F[B-](F)(F)F [4-Picoline-2,2':6',2"-terpyridine-platinum(II) bis-tetrafluoroborate]
equilibrium binding constant [1]: about 1 x10^6 M^-1

C(C#Cc1cc[n+]([Pt-2]23[n+]4ccccc4-c4cccc([n+]42)-c2cccc[n+]23)cc1)#Cc1cc[n+]([Pt-2]23[n+]4ccccc4-c4cccc([n+]42)-c2cccc[n+]23)cc1.O=[N+]([O-])[O-].O=[N+]([O-])[O-].O=[N+]([O-])[O-].O=[N+]([O-])[O-] [A15, 1,4-Bis(4-pyridyl)butadiyne bis[(2,2':6',2"-terpyridine)platinum(II)] tetranitrate]
IC50 [2]: < 1000 nM | IC50 [3]: < 1000 nM | resistance factors (RF) [4]: 0.6 | loss of body weight [5]: no loss of body weight | deaths [5]: no deaths | signs of induced toxicity ([5]; 100 mg/kg): no sign of toxicity or body weight loss

[Cl-].[Cl-].[Pt+2].c1ccc(-c2cccc(-c3ccccn3)n2)nc1 [chloroplatinum complex]
binding association constants with ct-DNA [6]: essentially the same binding constant

O=[N+]([O-])[O-].O=[N+]([O-])[O-].O=[N+]([O-])[O-].O=[N+]([O-])[O-].O=[N+]([O-])[O-].O=[N+]([O-])[O-].[NH3+][Pt-2]([NH3+])([n+]1ccc(-c2cc[n+]([Pt-2]34[n+]5ccccc5-c5cc(Cl)cc([n+]53)-c3cccc[n+]34)cc2)cc1)[n+]1ccc(-c2cc[n+]([Pt-2]34[n+]5ccccc5-c5cc(Cl)cc([n+]53)-c3cccc[n+]34)cc2)cc1 [I20, trans-Diamminebis(4,4'-dipyridyl)platinum(II) bis[(4'-chloro-2,2':6',2"-terpyridine)platinum(II)] hexanitrate]
IC50 [2]: < 1000 nM | IC50 [3]: < 1000 nM | resistance factors (RF) [4]: 0.8

Clc1cc2[n+]3c(c1)-c1cccc[n+]1[Pt-2]3([n+]1ccc(-c3cc[n+]([Pt-2]45[n+]6ccccc6-c6cc(Cl)cc([n+]64)-c4cccc[n+]45)cc3)cc1)[n+]1ccccc1-2.O=[N+]([O-])[O-].O=[N+]([O-])[O-].O=[N+]([O-])[O-].O=[N+]([O-])[O-] [I18, 4,4'-Dipyridine bis[(4'-chloro-2,2':6',2"-terpyridine)platinum(II)] tetranitrate]
IC50 [2]: < 1000 nM | antitumour activity compared with cisplatin [7]: more effective than cisplatin | IC50 [3]: < 1000 nM

4,4'-vinylenedipyridine bis[2,2':6',2"-terpyridine platinum (II)] [A14 (4BF4)]
antitumour activity compared with cisplatin [8]: more effective than cisplatin | IC50 [9]: < 1000 nM

hydroxyethanethiolate-2,2':6',2"-terpyridine-platinum(II) [hydroxy-ethanethiolate complex]
binding association constants with ct-DNA [6]: 83000 M⁻¹

F[B-](F)(F)F.[OH][Pt-2]12[n+]3ccccc3-c3cccc([n+]31)-c1cccc[n+]12 [hydroxy-platinum complex]
binding constant [10]: approximately 7 x 10^4 M^-1

Clc1cc2[n+]3c(c1)-c1cccc[n+]1[Pt-2]3([n+]1ccc(C#CC#Cc3cc[n+]([Pt-2]45[n+]6ccccc6-c6cc(Cl)cc([n+]64)-c4cccc[n+]45)cc3)cc1)[n+]1ccccc1-2.O=[N+]([O-])[O-].O=[N+]([O-])[O-].O=[N+]([O-])[O-].O=[N+]([O-])[O-] [I15, 1,4-Bis(4-pyridyl)butadiyne bis[(4'-chloro-2,2':6'2"-terpyridine)platinum(II)] tetranitrate]
times more effective than cisplatin ([11]; A2780cis^R cell line): 13 times | resistance factors (RF) ([11]; A2780cis^R versus A2780): 1.1 | antitumour activity compared with cisplatin [7]: more effective than cisplatin | IC50 [12]: < 1000 nM | loss of body weight [5]: no loss of body weight | deaths [5]: no deaths | signs of induced toxicity ([5]; 50 mg/kg): not at 50 mg/kg | signs of induced toxicity ([5]; 100 mg/kg): some indication of toxicity (mild ataxia/twitching)
